Data from PubChem BioAssay AID1963971 (Molecular Pharmacology Branch, DTP, NCI, 2024).
Where “and” joins values, the source holds several entries; their conditions need not be identical. Equal values may be shown once.

Test system: 953936-095-R-J2-PDC spheroids with HUVEC/MSC, viability
Test: Anticancer human tumor 953936-095-R-J2-PDC patient-derived cervical squamous cell carcinoma cell line growth inhibition [PI3K]
Conditions: for viability, T/C: stronger effect = lower value
Procedure, shortened: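 Multi-cell spheroids combine tumor cells with HUVEC and human MSCs, treated with targeted agents alone or with inavolisib, alpelisib, duvelisib or copanlisib. Concentrations fall in half-log steps from at or near clinical Cmax, or from 10 microM where Cmax is unknown; viability read-out.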

[1] = curve of first compound, second compound 0.00316 µM
[2] = curve of first compound, second compound 0.01 µM
[3] = curve of first compound, second compound 0.0316 µM
[4] = curve of first compound, second compound 0.1 µM
[5] = curve of first compound, second compound 0.316 µM
[6] = curve of first compound, second compound 1 µM
[7] = second compound 0.00316 µM, first compound 0.0316 µM
[8] = second compound 0.00316 µM, first compound 0.1 µM
[9] = second compound 0.00316 µM, first compound 0.316 µM
[10] = second compound 0.00316 µM, first compound 1 µM
[11] = second compound 0.00316 µM, first compound 3.16 µM
[12] = second compound 0.00316 µM, first compound 10 µM
[13] = second compound 0.01 µM, first compound 0.0316 µM
[14] = second compound 0.01 µM, first compound 0.1 µM
[15] = second compound 0.01 µM, first compound 0.316 µM
[16] = second compound 0.01 µM, first compound 1 µM
[17] = second compound 0.01 µM, first compound 3.16 µM
[18] = second compound 0.01 µM, first compound 10 µM
[19] = second compound 0.0316 µM, first compound 0.0316 µM
[20] = second compound 0.0316 µM, first compound 0.1 µM
[21] = second compound 0.0316 µM, first compound 0.316 µM
[22] = second compound 0.0316 µM, first compound 1 µM
[23] = second compound 0.0316 µM, first compound 3.16 µM
[24] = second compound 0.0316 µM, first compound 10 µM
[25] = second compound 0.1 µM, first compound 0.0316 µM
[26] = second compound 0.1 µM, first compound 0.1 µM
[27] = second compound 0.1 µM, first compound 0.316 µM
[28] = second compound 0.1 µM, first compound 1 µM
[29] = second compound 0.1 µM, first compound 3.16 µM
[30] = second compound 0.1 µM, first compound 10 µM
[31] = second compound 0.316 µM, first compound 0.0316 µM
[32] = second compound 0.316 µM, first compound 0.1 µM
[33] = second compound 0.316 µM, first compound 0.316 µM
[34] = second compound 0.316 µM, first compound 1 µM
[35] = second compound 0.316 µM, first compound 3.16 µM
[36] = second compound 0.316 µM, first compound 10 µM
[37] = second compound 1 µM, first compound 0.0316 µM
[38] = second compound 1 µM, first compound 0.1 µM
[39] = second compound 1 µM, first compound 0.316 µM
[40] = second compound 1 µM, first compound 1 µM
[41] = second compound 1 µM, first compound 3.16 µM
[42] = second compound 1 µM, first compound 10 µM
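Note: spheroids exposed to compounds for seven days before read-out.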

SMILES: CNC(=O)c1ccc(N2C(=S)N(c3ccc(C#N)c(C(F)(F)F)c3)C(=O)C2(C)C)cc1F
- viability, T/C (compound 0.0316 µM): 106% (2×) and 93.7% and 103%
- viability, T/C (compound 0.1 µM): 98% [middle of 4 runs]
- viability, T/C (compound 0.316 µM): 93.5% [middle of 4 runs]
- viability, T/C (compound 1 µM): 102% (2×) and 112% and 107%
- viability, T/C (compound 10 µM): 88.5% [middle of 4 runs]
- IC50 (curve of compound): > 10000 nM

SMILES: CCCS(=O)(=O)Nc1ccc(F)c(C(=O)c2c[nH]c3ncc(-c4ccc(Cl)cc4)cc23)c1F + CC(Nc1ccc2c(c1)OCCn1cc(N3C(=O)OCC3C(F)F)nc1-2)C(N)=O
- IC50 [1]: 5190 nM
- IC50 [2]: 4760 nM
- IC50 [3]: 4770 nM
- IC50 [4]: 3260 nM
- IC50 [5]: < 31.6 nM
- IC50 [6]: < 31.6 nM
- viability, T/C [7]: 93.9%
- viability, T/C [8]: 101%
- viability, T/C [9]: 104%
- viability, T/C [10]: 111%
- viability, T/C [11]: 87.3%
- viability, T/C [12]: 0.81%
- viability, T/C [13]: 91.7%
- viability, T/C [14]: 94.8%
- viability, T/C [15]: 96.4%
- viability, T/C [16]: 98.7%
- viability, T/C [17]: 77.1%
- viability, T/C [18]: 0.48%
- viability, T/C [19]: 82%
- viability, T/C [20]: 78.7%
- viability, T/C [21]: 78.7%
- viability, T/C [22]: 81.9%
- viability, T/C [23]: 75.6%
- viability, T/C [24]: 3.87%
- viability, T/C [25]: 56.3%
- viability, T/C [26]: 58.7%
- viability, T/C [27]: 59%
- viability, T/C [28]: 56.1%
- viability, T/C [29]: 51.5%
- viability, T/C [30]: 0.85%
- viability, T/C [31]: 34%
- viability, T/C [32]: 34%
- viability, T/C [33]: 35.5%
- viability, T/C [34]: 35.8%
- viability, T/C [35]: 27.4%
- viability, T/C [36]: 0.86%
- viability, T/C [37]: 21.7%
- viability, T/C [38]: 23.6%
- viability, T/C [39]: 23.1%
- viability, T/C [40]: 26%
- viability, T/C [41]: 17.9%
- viability, T/C [42]: 0.87%

SMILES: C#Cc1c(F)ccc2cc(O)cc(-c3ncc4c(N5CC6CCC(C5)N6)nc(OCC56CCCN5CC(F)C6)nc4c3F)c12 (stereo unspecified)
- viability, T/C (compound 0.0316 µM): 115% [middle of 4 runs]
- viability, T/C (compound 0.1 µM): 97.5% [middle of 4 runs]
- viability, T/C (compound 0.316 µM): 101% [middle of 4 runs]
- viability, T/C (compound 1 µM): 92.4% [middle of 4 runs]
- viability, T/C (compound 3.16 µM): 85.2% [middle of 4 runs]
- viability, T/C (compound 10 µM): 81% [middle of 4 runs]
- IC50 (curve of compound): > 10000 nM

SMILES: CC(Cn1ccc(-c2ccc(C#N)c(Cl)c2)n1)NC(=O)c1cc(C(C)O)[nH]n1 (stereo unspecified) + CC(Nc1ccc2c(c1)OCCn1cc(N3C(=O)OCC3C(F)F)nc1-2)C(N)=O
- IC50 [1]: > 10000 nM
- IC50 [2]: > 10000 nM
- IC50 [3]: > 10000 nM
- IC50 [4]: > 10000 nM
- IC50 [5]: < 31.6 nM
- IC50 [6]: < 31.6 nM
- viability, T/C [7]: 86.4%
- viability, T/C [8]: 92.7%
- viability, T/C [9]: 94%
- viability, T/C [10]: 97.8%
- viability, T/C [11]: 105%
- viability, T/C [12]: 107%
- viability, T/C [13]: 87.7%
- viability, T/C [14]: 90.9%
- viability, T/C [15]: 92.1%
- viability, T/C [16]: 91.5%
- viability, T/C [17]: 86.6%
- viability, T/C [18]: 95.1%
- viability, T/C [19]: 84.3%
- viability, T/C [20]: 76.1%
- viability, T/C [21]: 74.7%
- viability, T/C [22]: 84.5%
- viability, T/C [23]: 81.7%
- viability, T/C [24]: 82.6%
- viability, T/C [25]: 58.1%
- viability, T/C [26]: 56.3%
- viability, T/C [27]: 54.6%
- viability, T/C [28]: 54.4%
- viability, T/C [29]: 61.3%
- viability, T/C [30]: 56.5%
- viability, T/C [31]: 34.3%
- viability, T/C [32]: 32.5%
- viability, T/C [33]: 32.6%
- viability, T/C [34]: 36.2%
- viability, T/C [35]: 38.4%
- viability, T/C [36]: 34.6%
- viability, T/C [37]: 21.8%
- viability, T/C [38]: 21.7%
- viability, T/C [39]: 20.9%
- viability, T/C [40]: 26.6%
- viability, T/C [41]: 22.6%
- viability, T/C [42]: 24.1%

SMILES: CNC(=O)c1ccc(N2C(=S)N(c3ccc(C#N)c(C(F)(F)F)c3)C(=O)C2(C)C)cc1F + COc1c(OCCCN2CCOCC2)ccc2c3n(c(=NC(=O)c4cnc(N)nc4)nc12)CCN3
- IC50 [1]: > 10000 nM
- IC50 [2]: > 10000 nM
- IC50 [3]: < 31.6 nM
- IC50 [4]: < 31.6 nM
- IC50 [5]: < 31.6 nM
- IC50 [6]: < 31.6 nM
- viability, T/C [7]: 86.8%
- viability, T/C [8]: 85%
- viability, T/C [9]: 92%
- viability, T/C [10]: 89.7%
- viability, T/C [11]: 81.6%
- viability, T/C [12]: 70%
- viability, T/C [13]: 72.6%
- viability, T/C [14]: 72.3%
- viability, T/C [15]: 76.7%
- viability, T/C [16]: 66.6%
- viability, T/C [17]: 74.6%
- viability, T/C [18]: 63.9%
- viability, T/C [19]: 42.1%
- viability, T/C [20]: 43%
- viability, T/C [21]: 42.3%
- viability, T/C [22]: 45.8%
- viability, T/C [23]: 41.6%
- viability, T/C [24]: 37.3%
- viability, T/C [25]: 19.2%
- viability, T/C [26]: 18.7%
- viability, T/C [27]: 18.4%
- viability, T/C [28]: 18%
- viability, T/C [29]: 19.6%
- viability, T/C [30]: 17.2%
- viability, T/C [31]: 6.13%
- viability, T/C [32]: 6.8%
- viability, T/C [33]: 6.44%
- viability, T/C [34]: 6.88%
- viability, T/C [35]: 8.06%
- viability, T/C [36]: 6.65%
- viability, T/C [37]: 1.46%
- viability, T/C [38]: 1.67%
- viability, T/C [39]: 1.58%
- viability, T/C [40]: 1.92%
- viability, T/C [41]: 1.61%
- viability, T/C [42]: 1.49%

SMILES: CC(C)NCC(C(=O)N1CCN(c2ncnc3c2C(C)CC3O)CC1)c1ccc(Cl)cc1 (stereo unspecified) + CC(Nc1ncnc2nc[nH]c12)c1cc2cccc(Cl)c2c(=O)n1-c1ccccc1
- IC50 [3]: 952 nM
- IC50 [4]: 1010 nM
- IC50 [5]: 922 nM
- IC50 [6]: 1050 nM
- IC50 (curve of first compound, second compound 3.16 µM): 873 nM
- IC50 (curve of first compound, second compound 10 µM): 393 nM
- viability, T/C [19]: 94.7%
- viability, T/C [20]: 99.8%
- viability, T/C [21]: 77.9%
- viability, T/C [22]: 49.6%
- viability, T/C [23]: 22.6%
- viability, T/C [24]: 14.1%
- viability, T/C [25]: 100%
- viability, T/C [26]: 104%
- viability, T/C [27]: 75.8%
- viability, T/C [28]: 52.5%
- viability, T/C [29]: 24.3%
- viability, T/C [30]: 14.3%
- viability, T/C [31]: 111%
- viability, T/C [32]: 98.1%
- viability, T/C [33]: 82%
- viability, T/C [34]: 47.9%
- viability, T/C [35]: 23.1%
- viability, T/C [36]: 17.1%
- viability, T/C [37]: 104%
- viability, T/C [38]: 82.9%
- viability, T/C [39]: 73.5%
- viability, T/C [40]: 53.9%
- viability, T/C [41]: 26.2%
- viability, T/C [42]: 13.4%
- viability, T/C (second compound 3.16 µM, first compound 0.0316 µM): 79.7%
- viability, T/C (second compound 3.16 µM, first compound 0.1 µM): 79.1%
- viability, T/C (second compound 3.16 µM, first compound 0.316 µM): 72.9%
- viability, T/C (second compound 3.16 µM, first compound 1 µM): 45.7%
- viability, T/C (second compound 3.16 µM, first compound 3.16 µM): 23.6%
- viability, T/C (second compound 3.16 µM, first compound 10 µM): 12.7%
- viability, T/C (second compound 10 µM, first compound 0.0316 µM): 61.1%
- viability, T/C (second compound 10 µM, first compound 0.1 µM): 58.3%
- viability, T/C (second compound 10 µM, first compound 0.316 µM): 51.7%
- viability, T/C (second compound 10 µM, first compound 1 µM): 40%
- viability, T/C (second compound 10 µM, first compound 3.16 µM): 20.1%
- viability, T/C (second compound 10 µM, first compound 10 µM): 9.46%
